Drawing on PubChem BioAssay (NCI), this text covers GI50 and TGI for 12 compounds.

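In this assay, cells in 96-well plates receive the compound at five concentrations for 48 hours. Endpoints are linearly interpolated between the surrounding concentrations. GI50 = concentration required for 50% inhibition of growth. TGI denotes the concentration required for complete inhibition of growth.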

Holding throughout (experiment): NCI tumour cell line growth inhibition, 48 h
The test system of assay [1] is NCI/ADR-RES ovarian.
For assay [2], the system named is HCT-116 colon.
In assay [3] the test system is U251 CNS.
Assay [4] deals with MDA-MB-231 breast.
In assay [5] the test system is SF-539 CNS.
Assay [6] concerns SK-MEL-5 melanoma.
Assay [7] deals with DU-145 prostate.
For assay [8], the system named is OVCAR-4 ovarian.
Assay [9] concerns NCI-H522 lung.
The test system of assay [10] is CAKI-1 renal.

Consider `COc1ccc2sc3c(NCCCN(C)C)nc4ccccc4c3c(=O)c2c1`, for which the GI50 in assay [1] is 1.64 µM; in assay [2], 1.57 µM; in assay [3] it was 1.53 µM; in assay [4], 1.38 µM; in assay [5] it was 1.63 µM; in assay [6], 1.73 µM. Besides, the GI50 in assay [7] is 1.66 µM; in assay [8], 1.8 µM; in assay [9] it was 1.78 µM; in assay [10], 1.6 µM. In addition, the TGI was found to be 3.28 µM in [1]; 3.01 µM in assay [2]; 3.27 µM in [3]; 2.8 µM in [4]; 3.06 µM in assay [5]; 3.12 µM in assay [6]. Besides, the TGI in assay [7] worked out at 3.07 µM; in assay [8], 3.82 µM; in assay [9], 3.46 µM; in [10] it was 2.95 µM.
With `O=C(NCCO)Nc1ccc(-c2nc(N3CCOCC3)c3cccn3n2)cc1`, the GI50 was 2.25 µM in assay [1]; 1.85 µM in [2]; 1.01 µM in assay [3]; 0.172 µM in [4]; 0.315 µM in [5]; 0.236 µM in assay [6]. Moreover, the GI50 in [7] was 0.232 µM; in [8] it was 0.0892 µM; in [9], 0.0833 µM; in assay [10], 1.16 µM. The TGI is more than 33.7 µM in assay [1]; more than 100 µM in assay [2]; more than 95.1 µM in assay [3]; 14.6 µM in assay [4]; 5.72 µM in [5]; 3.67 µM in [6]. The TGI in [7] is more than 58.5 µM; in [8] it was 3.75 µM; in assay [9], more than 100 µM; in [10] it was more than 100 µM.
For the compound `C=CCOc1cccc(/C=C2\SC(=Nc3ccc(O)cc3)NC2=O)c1`, the GI50 was 0.494 µM in assay [1]; 0.408 µM in assay [2]; 0.495 µM in assay [3]; 0.975 µM in assay [4]; 0.296 µM in assay [5]; 0.555 µM in assay [6]. The GI50 is 0.399 µM in assay [7], 2.15 µM in assay [8], 0.406 µM in [9] and 0.466 µM in [10]. Moreover, the TGI in [1] amounted to 17.1 µM; in assay [2], 5.38 µM; in assay [3], 12.9 µM; in assay [4], 6.62 µM; in [5], 1.14 µM; in [6], 2.44 µM. In addition, the figures for the TGI in assay [8], in [9] and in assay [10] were 22.8 µM, 2.98 µM and 6.43 µM, respectively.
Consider `Cc1cc(N(CCCl)CCCl)ccc1C=Nc1ccc(-c2csc(Cc3ccccc3)n2)cc1`, for which the GI50 in assay [1] was 5.18 µM; in [2], 13.6 µM; in assay [3] it was 7.82 µM; in [4] it was 12.3 µM; in [5], 5.41 µM; in [6], 7.68 µM. Further, the GI50 was 7.98 µM in assay [7], 8.01 µM in [8], 11.7 µM in [9] and 2.18 µM in [10]. Also, the TGI in assay [1] stood at 34 µM; in assay [2], 40.3 µM; in assay [3], 37.6 µM; in assay [4], 49.5 µM; in assay [5], 29.4 µM; in assay [6], 21.2 µM. For the same compound, the TGI in assay [7] was 62.3 µM; in assay [8] it was more than 100 µM; in assay [9], 27 µM; in assay [10], 30.5 µM.
Turning to `CCCC(=O)OC1C(C(O)CO)OC2OC(C)(C)OC21` (stereo not drawn), the TGI in assay [1], in [2], in assay [3], in [4], in assay [5] and in assay [6] was more than 100 µM in each case. For the same compound, the TGI in assay [7], in [8], in assay [9] and in assay [10] was more than 100 µM each time.
For the compound `Cn1cccc1-c1cc(-c2cccs2)nc(N)c1C#N`, the GI50 in assay [1], in assay [2], in assay [3], in assay [4], in [5] and in [6] was more than 100 µM each time. Further, the GI50 in assay [7], in assay [8], in assay [9] and in assay [10] was more than 100 µM throughout. Further, the TGI in assay [1], in assay [2], in assay [3], in [4], in assay [5] and in assay [6] was more than 100 µM each time. The TGI in assay [7], in assay [8], in assay [9] and in [10] was more than 100 µM each time.
Regarding `O=c1cc(-c2ccccc2)[nH]c2ccccc12`, the GI50 in assay [1] was 0.483 µM; in assay [2], 0.547 µM; in assay [3], 0.573 µM; in assay [4], 4.09 µM; in assay [5] it was 0.412 µM; in [6], 0.387 µM. Moreover, the GI50 in assay [7] was 0.829 µM; in assay [8], 0.949 µM; in [9], 0.439 µM; in [10], 0.825 µM. Moreover, the TGI was more than 100 µM in assay [2]; more than 100 µM in assay [3]; more than 62.1 µM in assay [4]; 9.66 µM in [5]; 19.1 µM in assay [6]; more than 71.4 µM in assay [7]. Moreover, the TGI in assay [8] was more than 100 µM; in [9], more than 46.7 µM; in [10], more than 100 µM.
`CC1OC(O[C@@H]2OC=C(C=O)[C@@]3(O)CC[C@H](C)[C@@H]23)C(O)C(O)C1O` (stereo partly drawn): the TGI in assay [1], in assay [2], in assay [3], in assay [4], in assay [5] and in assay [6] was more than 100 µM in each case. Further, the TGI in assay [7], in [8], in [9] and in assay [10] was more than 100 µM in each case.
Take `CC1(C)CC(=O)c2c(C(F)(F)F)nn(-c3ccc(C(N)=O)c(NC4CCC(OC(=O)CN)CC4)c3)c2C1` (stereo not drawn): the GI50 in assay [1] is 12.5 µM; in [2] it was 0.0405 µM; in assay [3], 0.0731 µM; in assay [4], 0.112 µM; in assay [5], 0.364 µM; in assay [6] it was 0.0742 µM. In addition, the GI50 in [7] is 0.0883 µM; in assay [8], more than 25.1 µM; in assay [9] it was 0.0387 µM; in [10] it was 2.9 µM. The TGI is more than 100 µM in assay [1]; 31.6 µM in assay [2]; more than 54.2 µM in assay [3]; 31.5 µM in assay [4]; 20.8 µM in assay [5]; 18.3 µM in assay [6]. Moreover, the TGI in [7] was more than 100 µM; in [8], more than 100 µM; in assay [9], 20.1 µM; in [10], more than 100 µM.
Turning to `CCOC(=O)c1c2c(n3ccccc13)C(=O)c1ccccc1C2=O`, the TGI in [1], in assay [2], in [3], in assay [4], in assay [5] and in assay [6] was more than 100 µM in each case. The TGI in assay [7], in [8], in [9] and in assay [10] was more than 100 µM in each case.
Turning to `COc1ccc(OC)c(/C=C2\SC(=S)NC2=O)c1`, the GI50 is 25.4 µM in assay [1]; 29.9 µM in [2]; 41 µM in [3]; 14.2 µM in assay [4]; 17.4 µM in [5]; 21.2 µM in assay [6]. The GI50 in [7] is 20 µM; in assay [8], 62.9 µM; in assay [9], 31.4 µM; in assay [10], 21.9 µM. Moreover, the TGI in assay [1] is 87.5 µM; in assay [2], more than 100 µM; in assay [3], more than 100 µM; in [4], 43.2 µM; in assay [5], 49.6 µM; in [6], 49.2 µM. Further, the TGI is 74.3 µM in assay [7], more than 100 µM in [8], more than 100 µM in assay [9] and 61.4 µM in assay [10].
For `Cc1ccc(-c2cn3ccnc3c(-c3ccc(Cl)cc3)n2)cc1`, the GI50 in assay [1] is 0.102 µM; in [2] it was 0.292 µM; in assay [3], 0.786 µM; in assay [4] it was 0.506 µM; in [5], 0.0422 µM; in assay [6], 0.0627 µM. For the same compound, the GI50 in assay [7] was 0.214 µM; in assay [8], 14.7 µM; in assay [9] it was 1.98 µM; in [10], 0.0361 µM. The TGI is more than 30.6 µM in assay [1]; more than 33.8 µM in assay [2]; 18.1 µM in [3]; 50.1 µM in assay [4]; 1.35 µM in [5]; 11.4 µM in assay [6]. Also, the TGI was 52.9 µM in assay [7], more than 100 µM in assay [8], more than 8.22 µM in assay [9] and 2.84 µM in [10].
